“Also recorded” adds a separate entry of the source.
How the values were obtained:
HPAF II cells = assay: Cell apoptosis detection (Caspase Glo 3/7) in HPAF II cells with MEK/ERK modulators and AST; assay type: cell-based
Experimental: Additionally, cell apoptosis detection was performed as follows: • 1) Caspase Glo® 3/7 reagents were prepared and equilibrated to room temperature. The buffer of the reagents and the substrate were mixed homogeneously at 1:1 to prepare Caspase Glo® 3/7 reagents. The configured reagents can be stored at 4 °C for 3 days. • 2) 100 µL Caspase Glo® 3/7 reagents were added to each well of culture medium containing 100 µL blank (wells without cells), negative control cells, or treated cells. Due to the sensitivity of the analysis, be careful not to make the tip of the pipette to touch the holes that contained samples to avoid cross contamination. The plates were covered with a plate sealant or lid. • 3) The reagent solutions were mixed gently using a shaker at a speed of 300-500 rpm for 30 seconds, and left in the dark at room temperature for 1 hour. • 4) The luminescence of each sample was measured in a plate reading photometer. And the luminescence value of each group was calculated, and analyze by making a column diagram.
The specific compounds to be treated in the apoptosis inhibitor group and activator group are as follows: Inhibition group: 1% DMSO treatment group, 1 µM AST treatment group, 30 µM PD98059 treatment group, 1 mM Suramin treatment group, 1 µM AST + 30 µM PD98059 treatment group, and 1 µM AST + 1 mM Suramin treatment group; and Activator group: 1% DMSO treatment group, 1 µM AST treatment group, 50 nM TPA treatment group, and 1 µM AST + 50 nM TPA treatment group.

p-ERK2 [1] = assay: Western blot in HPAF II cells with MEK/ERK modulators and AST: p-ERK2; assay type: cell-based
Source text: The experiment used three types of MEK/ERK modulators, including two inhibitors and one activator. The inhibitors were PD98059, a MEK1/2 specific inhibitor, and Suramin, a broad-spectrum growth factor receptor inhibitor; while the activator of the ERK signaling pathway is Phorbol Ester (TPA). The chemical structures of inhibitor PD98059, inhibitor Suramin, and activator TPA are as follows: [drawing 48] [drawing 49] [drawing 50]
The experiment was assigned to inhibitor group and activator group, both of which were performed by Western Blot and cell apoptosis experiments.
In the Western blot experiment, HPAF II cell suspensions were treated with each group of compounds, and cultured overnight in a 37 °C, 5% CO2 incubator, and the cell protein lysate was collected for Western blot (WB) detection.
The specific compounds to be treated in the Western blot inhibitor group and activator group are as follows: Inhibitor group: 1% DMSO treatment group, 1 µM AST treatment group, 30 µM PD98059 treatment group, 1 mM Suramin treatment group, 1 µM AST + 30 µM PD98059 treatment group, and 1 µM AST + 1 mM Suramin treatment group; and Activator group: 1% DMSO treatment group, 0.5 µM AST treatment group, 25 nM TPA treatment group, and 0.5 µM AST + 25 nM TPA treatment group.

AKR1C3 = details: HPAF II cells; increasing SFN concentration 0.875-7 µM, overnight
Experimental: (§1) The solution of SFN compound (Sulforaphane, NRF2 activator) was added to HPAF II cell suspension, cultured overnight in a 37 °C, 5% CO2 incubator, and the cell protein lysate was collected for Western blot (WB) detection.
(§2) The experiment was assigned to 5 groups: 0.5% DMSO, 0.875 µM SFN, 1.75 µM SFN, 3.5 µM SFN, and 7 µM SFN.
(§3) HPAF II cells were treated with different concentrations of NRF2 activator SFN, and then the expression of NRF2 and AKR1C3 was detected by Western blot.

NRF2 = details: HPAF II cells; increasing SFN concentration 0.875-7 µM, overnight
Experimental: as §1, §2, §3

p-ERK2 [2] = assay: AST induced ERK phosphorylation experiment, Western blot in HPAF II cells: p-ERK2; assay type: cell-based
Experimental: AST induced ERK phosphorylation experiment. Three sets of experiments were conducted with corresponding three sets of variables: AST concentration, AST action time, and AKRAC3 enzyme dependent.
The expressions of NRF2 and AKR1C3 were detected by Western blot.

Cc1ccc(C(=O)Nc2ccc(S(=O)(=O)O)c3cc(S(=O)(=O)O)cc(S(=O)(=O)O)c23)cc1NC(=O)c1cccc(NC(=O)Nc2cccc(C(=O)Nc3cc(C(=O)Nc4ccc(S(=O)(=O)O)c5cc(S(=O)(=O)O)cc(S(=O)(=O)O)c45)ccc3C)c2)c1 [suramin, Suramin, reference compound]
cell apoptosis (Caspase 3/7 luminescence) (HPAF II cells; 1 mM Suramin monotherapy): almost no effect on cell apoptosis
expression level of p-ERK2 (p-ERK2 [1]; 1 mM Suramin alone): slightly reduced

C[S+]([O-])CCCCN=C=S (centres unmarked) [SFN, Sulforaphane]
expressions of AKR1C3 (AKR1C3): also increased simultaneously
expressions of NRF2 (NRF2): significantly increased

O=C(N1CCOCC1)N1CCN(c2ccc(Cl)cc2Cl)CC1 [AST-3021, reference compound]
p-NRF2 expression level / level of p-ERK2 (p-ERK2 [2]; 3 µM AST-3021 alone, 24h): remained basically unchanged; also recorded: did not affect
effect on the increase of AST-mediated phosphorylation of ERK2 (p-ERK2 [2]; 3 µmol/L AST-3021 pretreatment 2 hours before 1 µmol/L AST): strongly inhibited

COc1cccc(-c2cc(=O)c3ccccc3o2)c1N [PD98059, reference compound]
cell apoptosis (Caspase 3/7 luminescence) (HPAF II cells; 30 µM PD98059 monotherapy): almost no effect on cell apoptosis
expression level of p-ERK2 (p-ERK2 [1]; 30 µM PD98059 alone): slightly reduced
